Entries after “also recorded” stand apart in the source; their conditions may differ.
Test system: CD39^+/+ and CD39^−/− mice exposed to hypoxia
Experiment: Ectonucleotidase reconstitution and P2X1 receptor blocking in murine chronic hypoxia model of pulmonary hypertension
Type: in vivo, mouse
Conditions: for development of pulmonary hypertension (PH): continuous infusion during four weeks of hypoxia, CD39^+/+ and CD39^−/− mice; for pulmonary arterial pressures: continuous administration
Text: Seven-week-old CD39^+/+ and CD39^−/− mice were maintained at 10% oxygen (normobaric) for four weeks using a purpose-built, normobaric hypoxia chamber with automated oxygen-regulating capability. Circulating air was scavenged using charcoal and soda lime (Sigma-Aldrich, St. Louis, MO). Temperature and humidity were monitored, and the latter maintained within normal limits using Dririte (Sigma-Aldrich, St. Louis, MO). Normoxic control mice were maintained in the same room at 21% oxygen, which was verified by a continuous oxygen sensor (BioSpherix, Lacona, NY). All animals were given free access to food and water, and were maintained on a 12-hour dark/light cycle.
Mice were anesthetized using 2% isoflurane. A tracheostomy was performed, and animals were ventilated using 21% or 10% oxygen administered thorough the ventilator circuit. Optimal ventilator settings were confirmed using arterial blood gas measurements. After a median sternotomy was performed, hemodynamic measurements were made using a 1.2F solid state pressure catheter (Scisense Transonic, London, ON) inserted through the right ventricular (RV) free wall into the RV cavity and advanced into the pulmonary artery (PA). Placement was verified using the pressure waveform. Data including the right ventricular systolic pressure (RVSP) and mean PA (mPA) pressures were collected and analyzed using LabScribe2 (iWorx, Dover, NH). Continuous EKG monitoring was performed using the MouseMonitor (Indus Instruments, Webster, TX).
Alzet osmotic pumps (DURECT, Cupertino, CA) were used to deliver either 15 units of
apyrase (A6410, Sigma-Aldrich, St. Louis, MO), 25 mM of NF279 (Tocris Bioscience/Bio-Techne, Minneapolis, MN) or sterile 0.9% sodium chloride over a four-week period at a rate of 0.11 μl/hr.
Based upon findings of increased intravascular ATP and ADP, significant up-regulation of the P2X1 receptor, and severe pulmonary hypertension in hypoxic CD39-mice, two sets of rescue experiments were designed aimed at reversing the PH phenotype. The first rescue experiment involved the reconstitution of intravascular ectonucleotidase activity. Soluble potato tuber apyrase has known ATPase and ADPase activity, and has been used in prior studies involving CD39^−/− mice (ref. 24, 44; incorporated by reference in their entireties). Sequence homology of this apyrase is similar to human and murine CD39 (ref. 19; incorporated by reference in its entirety). […] The second rescue experiment involved the continuous infusion of NF279 (8,8′-[Carbonylbis (imino-4,1-phenylenecarbonylimino-4,1-phenylenecarbonylimino)]bis-1,3,5-naphthalenetrisulfonic acid hexasodium salt):
a sensitive and specific P2X1 antagonist, during four weeks of hypoxia. […] Pulmonary Vessels from Patients with IPAH have Increased P2X1 Receptors

Compound | development of pulmonary hypertension (PH) (FIG. 5c) | pulmonary arterial pressures (hypoxic CD39^−/− mice) | right ventricular systolic pressure (RVSP) (continuous subcutaneous administration during four weeks of hypoxia (10% oxygen), compared to control mice that received continuous saline infusions, FIG. 5c) | RVSP relative to levels found in normoxic CD39^+/+ mice (hypoxic CD39^−/− mice, four weeks of continuous administration, FIG. 5c)
O=C(Nc1ccc(C(=O)Nc2ccc(C(=O)Nc3ccc(S(=O)(=O)[O-])c4cc(S(=O)(=O)[O-])cc(S(=O)(=O)[O-])c34)cc2)cc1)Nc1ccc(C(=O)Nc2ccc(C(=O)Nc3ccc(S(=O)(=O)[O-])c4cc(S(=O)(=O)[O-])cc(S(=O)(=O)[O-])c34)cc2)cc1.[Na+].[Na+].[Na+].[Na+].[Na+].[Na+] [NF279, 8,8′-[Carbonylbis (imino-4,1-phenylenecarbonylimino-4,1-phenylenecarbonylimino)]bis-1,3,5-naphthalenetrisulfonic acid hexasodium salt, reference compound] | prevented the development of PH in all groups; also recorded: protected both CD39^+/+ and CD39-4-mice from the development of hypoxic pulmonary hypertension | lowered pulmonary arterial pressures even further |  | 
apyrase | provided partial protection against the development of pulmonary hypertension | decreased pulmonary arterial pressures in hypoxic CD39-mice to levels found in hypoxic CD39^+/+ controls | significantly decreased the RVSP | did not decrease the RVSP in hypoxic CD39^−/− mice to levels found in normoxic CD39^+/+ mice
